The source of these data is patent US20210308065A1, “REMOTE MODULATION OF BICONTINUOUS NANOSPHERES FOR CONTROLLED DELIVERY APPLICATIONS” (Northwestern University, priority 2020, published 2021).

A short description of data set [1]: Encapsulation efficiency in PEG-b-PPS BCNs. In kind it is physicochemical. As to conditions: in PEG-b-PPS BCNs by FNP; hydrophilic cargo co-encapsulated with PhA. The method, then: Formation of PEG-b-PPS BCNs—BCNs were formed by flash nanoprecipitation (FNP) technique using a hand-driven CIJ mixer as described previously.^3, 14 10 mg of PEG-b-PPS polymer was dissolved in 500 μL of tetrahydrofuran (THF) and was impinged against 500 μL of Milli-Q water. After impingement the nascent BCNs were diluted in a 1.5 mL reservoir of Milli-Q water. THF was removed by vacuum desiccation overnight, resulting in a 5 mg/mL BCN formulation in water. In cases where hydrophobic cargo was loaded into BCNs, the cargo was dissolved along with the 10 mg of PEG-b-PPS polymer in the 500 μL of THF used for impingement. In cases where hydrophilic cargo was loaded into BCNs, the cargo was dissolved in the 500 μL of water used for impingement.
Loading and determination of encapsulation efficiency—The loading of hydrophilic molecules (Calcein, FITC-BSA, BODIPY-BSA) or hydrophobic molecules (Pheophorbide A or Camptothecin) in to BCNs was performed using FNP technique as stated above. Here, 500 μL of Calcien (1 mM) or fluorophore-BSA (2 mg/mL) in water was impinged against 500 μL of Pheophorbide A (0.2 mg/ml) or Camptothecin (0.6 mg/ml) in THF into an aqueous reservoir to form BCNs. After removal of THF via desiccation, BCNs were washed two times with distilled water by centrifugation (10,000×g, 10 min) to remove all the unencapsulated payloads and further resuspended in PBS or water for analysis. The amount of Pheophorbide A was determined by calculating absorbance at 666 nm. Calcein, FITC/BODIPY-BSA, and Camptothecin loading was analyzed by measuring fluorescence intensities at 470/509, 495/525, and 359/434 (excitation/emission, nm), respectively.

Data set [2] in a line: In vitro BCN degradation and release of payloads after irradiation. In kind it is physicochemical. Particulars: centrifugation. The method, then: In vitro BCN degradation and Release of payloads—In vitro degradation studies of PhA BCNs were performed under irradiation. Briefly, 200 μL of PhA BCNs (1 mg/ml) was transferred in to multiple wells of a 96 well black plate and then irradiated for 2.5 min at 50 mW/cm^2. The irradiated samples were immediately collected and centrifuged at 10,000×g for 10 min. After centrifugation, the supernatants and pellets were collected separately and analyzed using DLS and TEM as described above.
In vitro release of calcein, FITC-BSA, ethyl eosin and PhA from BCNs was measured after irradiation. 200 μL of PBS containing PhA BCNs co-loaded with calcein or FITC-BSA, or PhA BCNs and ethyl eosin BCNs, were transferred in to multiple wells of a 96 well black plate and then irradiated at 50 mW/cm^2 for 1.25, 2.5, 5 and 10 minutes. Post irradiation samples were centrifuged at 10,000×g for 10 min and supernatants were collected and further analyzed for amount released as described earlier. For PhA BCNs and ethyl eosin BCNs, % transmittance was measured using an M3 plate reader.

In another data set the test system is RAW 264.7 cells. As to the kind of experiment: MTT cell viability assay. The data set is classed as cell-based, murine. The procedure:
Cell culture—RAW 264.7 cells (murine macrophage cell line) were acquired from American Type Culture Collection (ATCC, Rockville, Md., USA) were employed for cell culture experiments.
MTT assay—RAW 264.7 cells (2×10^5 cells/mL, 100 μL) were plated in each well of a black 96-well plate and adhered overnight. The adhered cells were treated with free PhA (DMSO: PBS, 1:3) or PhA loaded BCNs (PBS) or CT BCNs or PhA-CT BCNs and incubated for 4 h. […] Post irradiation, cells were incubated for predetermined time intervals and then added with MTT (5 mg/mL in PBS, 10 μL). After 4 h MTT incubation with cells, formazan crystal deposition in each well was dissolved in DMSO (200 μL) and the absorbance was measured at 560 nm. All the samples were analyzed in quadruplicates.
The percentage cell viability was calculated as:
% cell viability=(OD of treated sample/OD of untreated sample)*100.

For data set [3] the following is noted: cited from earlier work.
The test system of the next data set is DN1 T cells. As to the kind of experiment: Vaccination with BMDC treated ex vivo with MA or MA BCN, DN1 T cell activation and proliferation. Particulars: 1 or 6 weeks after intratracheal vaccination; MA BCN vs MA pulsed BMDC. In kind it is in vivo, hCD1Tg mice. The text has this: One week before the 1 and 6 week timepoints, 3e6 DN1 T cells were adoptively transferred intravenously. DLN, lung, and spleen were obtained.

In data set [1], pheophorbide A [PhA] showed an Encapsulation efficiency of 80.7±2.2%. Besides, in data set [2], the “Release of photo-oxidizer into the supernatant after irradiation of loaded BCNs” value was “significantly greater amounts than the comparably ineffective ethyl eosin”. For the same molecule, the “Cell viability (MTT)” value in the data set with RAW 264.7 cells (RAW 264.7 cells, with irradiation vs non-irradiated, 12 h after irradiation) is recorded as “significant cell death”. Besides, the logP in data set [3] is 6.93.

Take `CC[C@@]1(O)C(=O)OCc2c1cc1n(c2=O)Cc2cc3ccccc3nc2-1` [free camptothecin, camptothecin]: the “Cytotoxicity (MTT viability)” value in the data set with RAW 264.7 cells (free drug, camptothecin 0.63 μg/mL, 48 h) is “significantly more cytotoxic than non-irradiated CT-PhA-BCNs”; with RAW 264.7 cells (non-irradiated, 24 h, three camptothecin concentrations (0.63, 1.56, 3.1 μg/mL)) it was “dose-dependent cytotoxicity at 24 h”; with RAW 264.7 cells (non-irradiated, 48 h, three camptothecin concentrations) it was “high cytotoxicity regardless of concentration at 48 h”. Consider `O=C(O)CN(CC(=O)O)Cc1cc2c(cc1O)Oc1cc(O)c(CN(CC(=O)O)CC(=O)O)cc1C21OC(=O)c2ccccc21` [calcein], for which the Encapsulation efficiency in data set [1] is 6.7±1.9%.

With mycolic acid [MA], in the data set on DN1 T cells, the “Activation and proliferation of DN1 T cells after vaccination with treated BMDC” value was “differences in activation and proliferation of DN1 T cells 6 weeks after vaccination, but not 1 week after vaccination”. Take `CCOC(=O)c1ccccc1-c1c2cc(Br)c(=O)c(Br)c-2oc2c(Br)c([O-])c(Br)cc12.[K+]` [ethyl eosin]: in data set [2], the “Release of photo-oxidizer into the supernatant after irradiation of loaded BCNs” value was “comparably ineffective”.

The molecule “FITC-BSA: fluorescein-tagged bovine serum albumin” yielded an Encapsulation efficiency in data set [1] of 34±4%.
